Assays:
[1] = molecular target: T1, BRD4 (BDI_K57-E168) (Homo sapiens, UniProt O60885); test: TR-FRET bromodomain binding assay, first bromodomain of BRD4; conditions: TR-FRET assay protocol G (compound 0.92 μM-15 pM); 100 nM probe
T1 construct: BD1: amino acids K57-E168; made in house
In short: (§1)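 Ki values derive from IC50s using probe Kd and concentration, with IC50s fitted to normalized TR-FRET ratios (Ex 340/Em 495, 520). Compounds competed against an Alexa647-labelled BET-inhibitor (100 nM BDI, 30 nM BDII) for 8 nM His-tagged bromodomain bound by Eu-anti-His antibody, 1 h, room temperature, pH 6.0.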

[2] = molecular target: T2, BRD4 (BDII_E352-M457) (Homo sapiens, UniProt O60885); test: TR-FRET bromodomain binding assay, second bromodomain of BRD4; conditions: TR-FRET assay protocol G (compound 0.92 μM-15 pM); 30 nM probe
T2 construct: protocol; made in house
In short: as §1

[3] = tested on: breast cancer cell line MX-1; test: MX-1 cell line proliferation assay; type: cell-based; conditions: MX-1 cells, 3-day proliferation assay, Cell Titer Glo; read-out: Cellular proliferation: EC50
In short: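 EC50 comes from sigmoidal fits of Cell Titer Glo luminescence relative to DMSO controls, with assay MSR 2.1. Ten-point 3-fold dilutions (top 3 or 1 μM final) were added to MX-1 breast cancer cells after overnight adhesion. Cells were at 5000/well and proliferation ran 3 days.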

Row | Compound | Ki [1] | Ki [2] | EC50 [3]
1 | COC(=O)CCC1c2c[nH]c3c(=O)n(C)cc(c23)-c2cc(CS(C)(=O)=O)ccc2N1c1ccc(F)cc1F (stereo not drawn) [Example 82, methyl 3-(4-(2,4-difluorophenyl)-10-methyl-7-((methylsulfonyl)methyl)-11-oxo-3,4,10,11-tetrahydro-1H-1,4,10-triazadibenzo[cd,f]azulen-3-yl)propanoate] | 13.3 nM | 1.12 nM | 979 nM
2 | CCOC(=O)C1c2c[nH]c3c(=O)n(C)cc(c23)-c2cc(CS(C)(=O)=O)ccc2N1c1ccc(F)cc1 [Example 85, (S)-ethyl 4-(4-fluorophenyl)-10-methyl-7-((methylsulfonyl)methyl)-11-oxo-3,4,10,11-tetrahydro-1H-1,4,10-triazadibenzo[cd,f]azulene-3-carboxylate] | 10.8 nM | 11.1 nM | 48.9 nM
3 | CCOC(=O)N1Cc2c[nH]c3c(=O)n(C)cc(c23)-c2cc(CS(C)(=O)=O)ccc21 [Example 87, ethyl 10-methyl-7-((methylsulfonyl)methyl)-11-oxo-10,11-dihydro-1H-1,4,10-triazadibenzo[cd,f]azulene-4(3H)-carboxylate] | 2.54 nM | 2.1 nM | 4.69 nM
4 | Cc1ccc(OC(=O)N2Cc3c[nH]c4c(=O)n(C)cc(c34)-c3cc(CS(C)(=O)=O)ccc32)cc1 [Example 91, p-tolyl 10-methyl-7-((methylsulfonyl)methyl)-11-oxo-10,11-dihydro-1H-1,4,10-triazadibenzo[cd,f]azulene-4(3H)-carboxylate] | 3.27 nM | 1.15 nM | 1.81 nM
5 | Cn1cc2c3c(c[nH]c3c1=O)CN(C(=O)Oc1ccccc1)c1ccc(CS(C)(=O)=O)cc1-2 [Example 93, phenyl 10-methyl-7-((methylsulfonyl)methyl)-11-oxo-10,11-dihydro-1H-1,4,10-triazadibenzo[cd,f]azulene-4(3H)-carboxylate] | 2.84 nM | 1.63 nM | 2.59 nM
6 | Cn1cc2c3c(c[nH]c3c1=O)CN(C(=O)Oc1ccc(F)cc1)c1ccc(CS(C)(=O)=O)cc1-2 [Example 94, 4-fluorophenyl 10-methyl-7-((methylsulfonyl)methyl)-11-oxo-10,11-dihydro-1H-1,4,10-triazadibenzo[cd,f]azulene-4(3H)-carboxylate] | 6.03 nM | 3.49 nM | 6.02 nM
7 | CC#CCOC(=O)N1Cc2c[nH]c3c(=O)n(C)cc(c23)-c2cc(CS(C)(=O)=O)ccc21 [Example 98, but-2-yn-1-yl 10-methyl-7-((methylsulfonyl)methyl)-11-oxo-10,11-dihydro-1H-1,4,10-triazadibenzo[cd,f]azulene-4(3H)-carboxylate] | 2.34 nM | 3.15 nM | 4.41 nM

These reach a lower Ki [1]. Values come first.

Row | Ki [1] | Ki [2] | EC50 [3] | Compound
8 | 2.24 nM | 3.86 nM | 17.7 nM | CCOC(=O)C1c2c[nH]c3c(=O)n(C)cc(c23)-c2cc(CS(C)(=O)=O)ccc2N1c1ccc(F)cc1 [Example 84, (R)-ethyl 4-(4-fluorophenyl)-10-methyl-7-((methylsulfonyl)methyl)-11-oxo-3,4,10,11-tetrahydro-1H-1,4,10-triazadibenzo[cd,f]azulene-3-carboxylate]
9 | 1.32 nM | 2.01 nM | 30.6 nM | Cn1cc2c3c(c[nH]c3c1=O)CN(C(=O)Oc1ccc3ccccc3c1)c1ccc(CS(C)(=O)=O)cc1-2 [Example 90, naphthalen-2-yl 10-methyl-7-((methylsulfonyl)methyl)-11-oxo-10,11-dihydro-1H-1,4,10-triazadibenzo[cd,f]azulene-4(3H)-carboxylate]
10 | 2.18 nM | 2.53 nM | 14.1 nM | COc1ccccc1OC(=O)N1Cc2c[nH]c3c(=O)n(C)cc(c23)-c2cc(CS(C)(=O)=O)ccc21 [Example 95, 2-methoxyphenyl 10-methyl-7-((methylsulfonyl)methyl)-11-oxo-10,11-dihydro-1H-1,4,10-triazadibenzo[cd,f]azulene-4(3H)-carboxylate]

Source: US10035800B2 (AbbVie Inc., priority 2013, dated 2018)
